The results in this text go back to patent US7494669B2, “Delivery of physiological agents with in-situ gels comprising anionic polysaccharides” (priority 2001, dated 2009).

Data set [1] concerns cells surrounding the gel. Briefly: Local delivery of bFGF by Aloe pectin in-situ gel. Type of data set: in vivo, mice. An excerpt: For growth factors to exert local effect on tissues surrounding the administration site, they need to be delivered in a matrix to allow them to be released in a slow or sustained manner. A delivery in saline or buffer alone is not effective in this regard. In this example, a growth factor (bFGF) was used. bFGF (basic fibroblast growth factor or FGF-2) is a growth factor known to stimulate fibroblast proliferation and angiogenesis or blood vessel formation. It was mixed with Aloe pectin (0.5%, w/v) in physiological saline at a concentration of 1-10 μg/ml and then injected subcutaneously into the lower left or right side of abdominal region of mice. One side received the control (pectin alone), and the other side received the bFGF-containing preparation. The in-situ gels from two mice were harvested along with skin at days 5-10 and subjected to fixation in formalin, sectioning, and H&E staining. Two identical areas, at either end of the gel, vertically between the gel surface and the skin muscle layer and horizontally 510 μm inward from the lateral end of the gel were selected, and the cells in these two selected areas from each gel were numerated using the NIH image software.

The nature of data set [2]: Gelation of HMW Aloe pectin solution on mixing with divalent cation salts. Type of data set: physicochemical. Also noted: key: + indicates whole gel formation; ± partial gel formation; − no gel formation and solution remains clear and homogenous. As for the experimental part: A 0.6% (w/v) HMW Aloe pectin solution in water was mixed with calcium chloride dihydrate solutions at various concentrations, at an 1:1 ratio (1 ml to 1 ml) to achieve a final polymer concentration of 0.3% (w/v) and a final calcium chloride dihydrate concentration from 0.0019-0.5% (w/v). The mixtures were immediately vortexed together, then the tubes were kept at room temperature and observed over time.

Data set [3] is described as follows: Gel frontal migration assay with serum. It counts as physicochemical. As to conditions: 3 mg/ml pectin with 0.0039% or 0.0078% calcium chloride on normal calf serum. The source says: Body fluids such as blood, lacrimal fluid, lung fluid and nasal secretions contain calcium ions ([…] in blood, for example). Since Aloe pectin forms calcium gel, the role of calcium in the in-situ gelation of Aloe pectin was examined using an in vitro gelling assay with animal serum that simulates in-situ gel formation. This in vitro assay is described as a gel frontal migration assay. Animal serum was placed at the bottom of a glass tube and the Aloe pectin solution was layered on top of the serum (the pectin solution may also be placed at the bottom of the tube dependent on the density of the test solution in relation to the pectin solution). Tissue culture grade normal calf serum was used. […]
Gel formation was immediate at the contact line (interface of the solutions) and the gel phase or gel front gradually extended upward in the pectin solution over time. […] The thickness of the gel formed at the interface can be measured over time (such measurements are referred to as “gel length” hereinbelow).
The gel frontal migration assay described above was used. […] After 18 hrs at room temperature, the length of gels formed (i.e. gel thickness) was measured. […]
The gel frontal migration assay described above was used. […] The length of gels formed was measured 18 hrs later. […]

Where [4] appears, read: 0.3% (w/v) HMW Aloe pectin, salt 0 % w/v final.
Setting [5] is: 0.3% (w/v) HMW Aloe pectin, salt 0.0019 % w/v final.
Setting [6] is: 0.3% (w/v) HMW Aloe pectin, salt 0.0039 % w/v final.
[7] abbreviates: 0.3% (w/v) HMW Aloe pectin, salt 0.0156 % w/v final.
[8] abbreviates: 0.3% (w/v) HMW Aloe pectin, salt 0.0313 % w/v final.
Where [9] appears, read: 0.3% (w/v) HMW Aloe pectin, salt 0.0625 % w/v final.
[10] abbreviates: 0.3% (w/v) HMW Aloe pectin, salt 0.125 % w/v final.
Setting [11] is: 0.3% (w/v) HMW Aloe pectin, salt 0.25 % w/v final.
The mark [12] stands for this setting: 0.3% (w/v) HMW Aloe pectin, salt 0.5 % w/v final.

Where two headings read alike, the source gives them in different places.

For “bFGF: basic fibroblast growth factor (FGF-2), delivered in 0.5% Aloe pectin in physiological saline”, the “Blood vessel formation surrounding the gel” value in data set [1] (bFGF 10 μg/ml) is listed as “increase in blood vessel formation”. Also, the “Cell number in bFGF-treated relative to the control (pectin alone)” value in data set [1] (bFGF 1-10 μg/ml in 0.5% Aloe pectin, subcutaneous, days 5-10) was “more than 2 times”.

Consider `[Cl-].[Cl-].[Zn+2]` [ZnCl2, zinc chloride], for which the “Gel formation on mixing with HMW Aloe pectin” value (shortened to “Gel formation on mixing”) in data set [2] (setting [4]) is reported as “−”; in data set [2] (setting [5]), “−”; in data set [2] (setting [6]) it was “−”; in data set [2] (0.3% (w/v) HMW Aloe pectin, salt 0.0078 % w/v final), “−”; in data set [2] (setting [7]), “±”; in data set [2] (setting [8]), “+”. The “Gel formation on mixing” value in data set [2] (setting [9]), in data set [2] (setting [10]), in data set [2] (setting [11]) and in data set [2] (setting [12]) was “+” throughout.

`O.O.[Ca+2].[Cl-].[Cl-]` [CaCl2•2H2O, calcium chloride dihydrate]: the “Gel formation on mixing” value is reported as “−” in data set [2]; “−” in data set [2] (setting [4]); “−” in data set [2] (setting [5]); “−” in data set [2] (setting [6]); “±” in data set [2] (setting [7]); “+” in data set [2] (setting [8]). For the same molecule, the “Gel formation on mixing” value in data set [2] (setting [9]), in data set [2] (setting [10]), in data set [2] (setting [11]) and in data set [2] (setting [12]) was “+” each time. The “Gel formation versus control without added calcium chloride” value in data set [3] is “gel formation increased”.
